Test results taken from patent publication US20220177932A1, “PROCESS AND COMPOSITION FOR CONTROLLING ETHANOL PRODUCTION” (priority 2020, published 2022).

What was measured:
[1] = test system: Clostridium authoethanogenum; assay: Syngas fermentation in stirred tank bioreactor, effect of vitamin feed rates on specific ethanol productivity; assay type: cell-based; conditions: Experiment 5
Excerpt: A synthesis gas containing CO, CO2 and H2 was continuously introduced into a stirred tank bioreactor containing Clostridium ljungdahlii (Experiments 1-4) or Clostridium authoethanogenum (Experiment 5), along with a liquid medium containing trace metals and salts as described herein. Vitamins were provided using dedicated feed lines. A New Brunswick Bioflow reactor containing the fermentation medium was started with actively growing Clostridium ljungdahlii (Experiments 1-5) or with Clostridium authoethanogenum (Experiment 6). The rate of agitation of the reactor was set to 800 rpm at the start of the experiment and this agitation rate was maintained throughout the experiment. Feed gas flow to the reactor was increased based on the H2 and CO uptake of the culture. Temperature in the bioreactor was maintained at about 38° C. throughout the experiment. Samples of gas feed into the bioreactor and off-gas from the bioreactor and fermentation broth in the bioreactor were taken at intervals, for example feed gas, off-gas and fermentation broth were sampled about daily, once two hours and once four hours respectively. Above samples were analyzed for consumption or production of various gas components, broth acetic acid concentration, broth ethanol concentration and the optical density (cell density) of the culture. The unaroused volume of the reactor was maintained between 3000 to 3250 ml throughout the experiment. Further, the gas flow to the reactor was maintained at required gas flow rates by using a mass flow controller. The feed […] composition was 23% H2, 35% CO, 29% CO2 and 13% N2. In the following reactor runs, vitamins biotin, thiamine and pantothenate were feed to the reactor using a dedicated stream. Steady state conditions were maintained for a period of time greater than 5 times the cell retention time. Cell mass was essentially replaced 5 times before data collection phase started. After data set was collected, vitamin feed rate was adjusted, adjustment phase was repeated, and next data set was collected. Adjustment phase refers to an amount of time necessary for the culture to equilibrate to a change. In this experiment culture was allowed at least a 3-day adjustment phase. A cell recycle system (CRS) was attached to the reactor before the start of the experiment. During the experiment, medium feed rate was 3.0 to 6.0 ml/min, and through the CRS, 0-5 ml/min permeate was drawn out from the reactor. The following tables describe the vitamin feed rates and specific ethanol productivity (SEP). Experiment 5: Fermentation with Clostridium authoethanogenum with Biotin (B7) and Thiamine (B1) feeds held at lower base levels with increasing Pantothenate (B5) Feeds.

[2] = test system: Clostridium ljungdahlii; assay: as above; assay type: cell-based; conditions: Experiment 4; vitamin B5 feed held constant below about 30 ug/g of cells produced, vitamin B1 and B7 feeds increased
Excerpt: A synthesis gas containing CO, CO2 and H2 was continuously introduced into a stirred tank bioreactor containing Clostridium ljungdahlii (Experiments 1-4) or Clostridium authoethanogenum (Experiment 5), along with a liquid medium containing trace metals and salts as described herein. Vitamins were provided using dedicated feed lines. A New Brunswick Bioflow reactor containing the fermentation medium was started with actively growing Clostridium ljungdahlii (Experiments 1-5) or with Clostridium authoethanogenum (Experiment 6). The rate of agitation of the reactor was set to 800 rpm at the start of the experiment and this agitation rate was maintained throughout the experiment. Feed gas flow to the reactor was increased based on the H2 and CO uptake of the culture. Temperature in the bioreactor was maintained at about 38° C. throughout the experiment. Samples of gas feed into the bioreactor and off-gas from the bioreactor and fermentation broth in the bioreactor were taken at intervals, for example feed gas, off-gas and fermentation broth were sampled about daily, once two hours and once four hours respectively. Above samples were analyzed for consumption or production of various gas components, broth acetic acid concentration, broth ethanol concentration and the optical density (cell density) of the culture. […]

| SMILES | SEP (specific ethanol productivity) ([1]; feeds pantothenate 48.47, biotin 29.54, thiamine 23.10 μg/g cells produced) [g//day/g cells] | SEP (specific ethanol productivity) ([1]; feeds pantothenate 58.08, biotin 26.65, thiamine 20.84 μg/g cells produced) [g//day/g cells] | SEP (specific ethanol productivity) ([1]; feeds pantothenate 62.90, biotin 23.04, thiamine 18.01 μg/g cells produced) [g//day/g cells] | SEP (specific ethanol productivity) ([1]; feeds pantothenate 68.78, biotin 25.19, thiamine 19.70 μg/g cells produced) [g//day/g cells] | SEP (specific ethanol productivity) ([1]; feeds pantothenate 70.67, biotin 21.62, thiamine 16.91 μg/g cells produced) [g//day/g cells] | SEP (specific ethanol productivity) ([1]; feeds pantothenate 81.90, biotin 18.79, thiamine 14.69 μg/g cells produced) [g//day/g cells] | specific ethanol productivity increase ([1]; vitamin B5 feed from about 48 to about 82 ug/g of cells produced, vitamin B1 and B7 feeds under 30, further under 20 ug/g of cells produced) | effect of increasing feed rate on specific ethanol productivity [2] |
| --- | --- | --- | --- | --- | --- | --- | --- | --- |
| CC(C)(CO)[C@@H](O)C(=O)NCCC(=O)O [Pantothenate (B5), pantothenate] | 8.08 | 8.24 | 8.51 | 9.39 | 9.70 | 9.98 | about 24% | – |
| O=C(O)CCCC[C@@H]1SC[C@@H]2NC(=O)N[C@@H]21 [vitamin B7, biotin] | – | – | – | – | – | – | – | did not increase specific ethanol productivity |
| Cc1ncc(C[n+]2csc(CCO)c2C)c(N)n1 [vitamin B1, thiamine] | – | – | – | – | – | – | – | did not increase specific ethanol productivity |
